{"source": "patent US7348421B1", "about": "“Methods for production of p-hydroxybenzoate in bacteria” (North Carolina State University, priority 2000, dated 2008)", "key": {"[1]": {"system": "P. mendocina krc16DkpobA51a (#303)", "type": "cell-based, Pseudomonas mendocina", "conditions": "gradient 0-100 mg/L, repeated lines"}, "[2]": {"system": "Pseudomonas putida DOT-T1E", "test": "Halo-inhibition test with antibiotic disks on minimal medium", "type": "cell-based", "conditions": "wild-type; Halo-inhibition test"}, "[3]": {"system": "P. mendocina KR1-A (#362)", "type": "cell-based, Pseudomonas mendocina", "conditions": "gradient 0-100 mg/L, repeated lines"}, "[4]": {"system": "Alcaligenes eutrophus", "type": "cell-based", "conditions": "gradient of PHBA between 0 and 30 g/L"}, "[5]": {"system": "PhoA5 mutant", "test": "Survival after sudden pHBA shock with or without Fe-citrate", "type": "cell-based, Pseudomonas putida"}, "[6]": {"system": "Pseudomonas fluorescens", "type": "cell-based", "conditions": "gradient of PHBA between 0 and 30 g/L"}, "[7]": {"system": "Ralstonia solanacearum", "type": "cell-based", "conditions": "gradient of PHBA between 0 and 30 g/L"}, "[8]": {"system": "Pseudomonas vesicularis", "type": "cell-based", "conditions": "gradient of PHBA between 0 and 30 g/L"}, "[9]": {"system": "Pseudomonas putida DOT-T1E", "test": "pHBA shock after preculture on pHBA, 1 or 10 mM MgSO4", "type": "cell-based"}, "[10]": {"system": "strain F (DGL#325)", "test": "Selection on TSA plates with toluene and pHBA", "type": "cell-based, Pseudomonas mendocina", "conditions": "100 ppm toluene, after few day of incubation", "procedure": "Three more transfers were made in a TSA medium plus 10 g/L glucose, 100 mg/L cycloheximide, 5 g/L agar (Difco), and increasing concentrations of pHBA. The pH was adjusted to 7.2. Toluene to 100 ppm was added to the bottom of the glass desicator as a mixture of hexadecane:toluene (262 mL:26.5 mL). This mixture was expected to give 100 ppm toluene in the liquid phase in equilibrium. […]. Under microscope strain C grew in long chains."}, "[11]": {"system": "E. coli K12 (#327)", "conditions": "gradient 0 to 40 g/L, 24 h, 30° C."}, "[12]": {"system": "Pseudomonas putida R1", "type": "cell-based", "conditions": "gradient of PHBA between 0 and 30 g/L"}, "[13]": {"system": "Pseudomonas stutzeri", "type": "cell-based", "conditions": "gradient of PHBA between 0 and 30 g/L"}, "[14]": {"system": "Enriched cultures", "test": "Selection on TSA plates with toluene and pHBA", "type": "cell-based", "conditions": "dodecane:toluene overlay (100 ppm toluene)", "procedure": "Five transfers were made on glass plates with trypticase soy agar (TSA-Difco) medium with 10 g/L glucose. Toluene (˜0.5 mL) was added to the bottom of the inverted plates, saturating the medium and the gas phase. […]. This mixture was calculated to give 100 ppm toluene concentration in the liquid phase. […]"}, "[15]": {"system": "Pseudomonas putida DOT-T1E", "test": "Growth in M9 liquid medium with glucose and p-hydroxybenzoate", "type": "cell-based", "conditions": "M9 with glucose"}, "[16]": {"system": "P. putida KT2440 with pPAT8", "conditions": "gradient 0-20 g/L"}, "[17]": {"system": "P. mendocina KR1 with pPAT8", "conditions": "gradient 0-20 g/L"}, "[18]": {"system": "P. mendocina krc16DkpobA51a (#303)", "conditions": "gradient 0 to 40 g/L, 24 h, 30° C."}, "[19]": {"system": "Bacillus subtilis", "type": "cell-based", "conditions": "gradient of PHBA between 0 and 30 g/L"}, "[20]": {"system": "P. mendocina KR1 with pPAT7", "conditions": "gradient 0-20 g/L"}, "[21]": {"system": "Acinetobacter calcoaceticus", "type": "cell-based", "conditions": "gradient of PHBA between 0 and 30 g/L"}, "[22]": {"system": "P. putida PhoA5 with pPAT8", "conditions": "gradient 0-20 g/L"}, "[23]": {"system": "Escherichia coli ET8000", "type": "cell-based", "conditions": "gradient of PHBA between 0 and 30 g/L"}, "[24]": {"system": "Pseudomonas aeruginosa", "type": "cell-based", "conditions": "gradient of PHBA between 0 and 30 g/L"}, "[25]": {"system": "P. putida KT2440", "conditions": "P. putida KT2440, plasmid none; gradient 0-20 g/L"}, "[26]": {"system": "P. putida KT2440 with pPAT7", "conditions": "gradient 0-20 g/L"}, "[27]": {"system": "Pseudomonas putida EEZ10", "type": "cell-based", "conditions": "gradient of PHBA between 0 and 30 g/L"}, "[28]": {"system": "strain C", "test": "Selection on TSA plates with toluene and pHBA", "type": "cell-based", "conditions": "100 ppm toluene", "procedure": "Three more transfers were made in a TSA medium plus 10 g/L glucose, 100 mg/L cycloheximide, 5 g/L agar (Difco), and increasing concentrations of pHBA. The pH was adjusted to 7.2. Toluene to 100 ppm was added to the bottom of the glass desicator as a mixture of hexadecane:toluene (262 mL:26.5 mL). This mixture was expected to give 100 ppm toluene in the liquid phase in equilibrium. Selected strains C and F (DGL#325) grew on 40 g/L pHBA after few day of incubation, strain C grew at 50 g/l pHBA after 10 days of incubation. Under microscope strain C grew in long chains."}, "[29]": {"system": "P. mendocina KR1 (#363)", "test": "Growth on pHBA gradient plates", "conditions": "gradient 0 to 40 g/L, 24 h, 30° C."}, "[30]": {"system": "P. mendocina KR1", "conditions": "P. mendocina KR1, plasmid none, gradient 0-20 g/L"}}, "note": "Values joined by “and” are separate entries in the source; they are usually repeats but may differ in a detail not shown here. Equal values may be shown once. Read-outs that look alike come from different tables or passages of the source.", "data": [{"smiles": "O=C(N[C@H](CO)[C@H](O)c1ccc([N+](=O)[O-])cc1)C(Cl)Cl", "note": "[CAM, chloramphenicol]", "values": [{"measurement": "Growth (distance in mm) on CAM gradient", "setting": "[1]", "value": "10 mm and 15 mm"}, {"measurement": "tolerance/sensitivity to antibiotic", "setting": "[2]", "value": "tolerant"}, {"measurement": "Growth (distance in mm) on CAM gradient", "setting": "[3]", "value": "15 mm and 10 mm"}]}, {"smiles": "O=C(O)c1ccc(O)cc1", "note": "[pHBA, p-hydroxybenzoic acid]", "values": [{"measurement": "pHBA tolerance or sensitivity", "setting": "[4]", "value": "sensitive"}, {"measurement": "survival after pHBA shock", "setting": "[5]; 12 g/L PHBA, absence of iron", "value": "about 0.0001%"}, {"measurement": "survival after pHBA shock", "setting": "[5]; 12 g/L PHBA, with extra iron (Fe-citrate)", "value": "~100", "unit": "%"}, {"measurement": "survival after pHBA shock", "setting": "[5]; 18 g/L, absence of iron", "value": "no cells survived"}, {"measurement": "survival after pHBA shock", "setting": "[5]; 18 g/L, supplemented with iron", "value": 0.001, "unit": "%"}, {"measurement": "pHBA tolerance or sensitivity", "setting": "[6]", "value": "sensitive"}, {"measurement": "pHBA tolerance or sensitivity", "setting": "[7]", "value": "sensitive"}, {"measurement": "pHBA tolerance or sensitivity", "setting": "[8]", "value": "sensitive"}, {"measurement": "cell viability after pHBA shock", "setting": "[9]; cells not pregrown on pHBA, 30 and 36 g/L, 24 h after the shock", "value": "no cells were recovered"}, {"measurement": "cell viability after pHBA shock", "setting": "[9]; cells not pregrown on pHBA, >18 g/L, 1 or 10 mM MgSO4", "value": "marked decrease in cell viability"}, {"measurement": "cell viability after pHBA shock", "setting": "[9]; preinduced cells, 30 and 36 g/L pHBA, 1 mM MgSO4, 24 h after the shock", "value": "cells were not recoverable"}, {"measurement": "decrease in number of viable cells after pHBA shock", "setting": "[9]; preinduced cells, 30 g/L, 10 mM MgSO4, growth resumed afterwards", "value": "~6 orders of magnitude"}, {"measurement": "cell viability after pHBA shock", "setting": "[9]; preinduced cells, up to 0.18 g/L PHBA, regardless of MgSO4", "value": "no significant effect on cell viability"}, {"measurement": "pHBA concentration at which strain grew", "setting": "[10]", "value": 40, "unit": "g/L"}, {"measurement": "growth on pHBA gradient plates", "setting": "[11]", "value": "35 mm and 20 mm"}, {"measurement": "pHBA tolerance or sensitivity", "setting": "[12]", "value": "tolerant"}, {"measurement": "pHBA tolerance or sensitivity", "setting": "[13]", "value": "sensitive"}, {"measurement": "pHBA concentration at which cultures grew", "setting": "[14]", "value": 20, "unit": "g/L"}, {"measurement": "growth (CFU per mL)", "setting": "[15]; 6 g/L of p-hydroxybenzoate", "value": "growth was exponential"}, {"measurement": "growth (CFU per mL)", "setting": "[15]; 12 or higher g/L p-hydroxybenzoate", "value": "number of viable cells decreased"}, {"measurement": "pHBA Tolerance", "setting": "[16]", "value": 18.5, "unit": "g/L"}, {"measurement": "pHBA Tolerance", "setting": "[17]", "value": 10.2, "unit": "g/L"}, {"measurement": "pHBA Tolerance", "setting": "[17]; listed as PHBA", "value": "~10", "unit": "g/L"}, {"measurement": "growth on pHBA gradient plates", "setting": "[18]", "value": "10 mm and 15 mm"}, {"measurement": "pHBA tolerance or sensitivity", "setting": "[19]", "value": "sensitive"}, {"measurement": "pHBA Tolerance", "setting": "[20]", "value": "~10", "unit": "g/L"}, {"measurement": "pHBA tolerance or sensitivity", "setting": "[21]", "value": "tolerant"}, {"measurement": "pHBA Tolerance", "setting": "[22]", "value": 17, "unit": "g/L"}, {"measurement": "pHBA tolerance or sensitivity", "setting": "[23]", "value": "tolerant"}, {"measurement": "pHBA tolerance or sensitivity", "setting": "[24]", "value": "sensitive"}, {"measurement": "pHBA Tolerance", "setting": "[25]", "value": 17, "unit": "g/L"}, {"measurement": "pHBA Tolerance", "setting": "[26]", "value": 17, "unit": "g/L"}, {"measurement": "pHBA tolerance or sensitivity", "setting": "[27]", "value": "tolerant"}, {"measurement": "pHBA concentration at which strain grew", "setting": "[28]; after 10 days of incubation", "value": 50, "unit": "g/l"}, {"measurement": "pHBA concentration at which strain grew", "setting": "[28]; after few day of incubation", "value": 40, "unit": "g/L"}, {"measurement": "growth on pHBA gradient plates", "setting": "[29]", "value": "10 mm and 20 mm"}, {"measurement": "pHBA Tolerance", "setting": "[30]", "value": 8.5, "unit": "g/L"}, {"measurement": "pHBA Tolerance", "setting": "[30]; listed as PHBA", "value": "about 8.5 g/L"}]}]}
